Results taken from US20230416247A1, “DRUG-LIKE MOLECULES AND METHODS FOR THE THERAPEUTIC TARGETING OF MICRORNA-21” (University of Washington, priority 2020, published 2023).
Entries after “also recorded” stand apart in the source; their conditions may differ.

Columns and labels:
PDCD4 in AGS cells = assay: Western blot of PDCD4 in AGS cells; assay type: cell-based, human; settings: 48 hours of incubation, relative to DMSO control, normalized to β-actin
Description: Data in FIG. 16B are reported as enhancement of PDCD4 levels, relative to DMSO control (no compound added).
Western blot analysis. Western blot analysis was conducted according to standard protocols. Briefly, proteins were collected from cells and lysed and the Bradford assay was used to measure protein concentrations. Quantification of protein expression was conducted using the image analysis software ImageJ.

[1] = test system: mature miR-21 in HeLa cells; assay: qRT-PCR of mature miR-21 in HeLa cells; assay type: cell-based; settings: for decline in levels of mature miR-21: days 4 and 5 of incubation, normalized to no compound; for reduction of all newly synthesized miR-21: worked out from the 20% decrease and miR-21 lifetime of approximately 5 days
Description: FIGS. 12A and 12B compare levels of mature miR-21 in HeLa cells, as measured by standard qRT-PCR after 5 days of incubation in the presence of palbociclib and compounds −0045 (sm1), −0050 (sm3) and −0052 (sm5) (FIG. 12A); and levels of mature miR-21 in HeLa cells were measured by qRT-PCR after 4 days of incubation in the presence of palbociclib (a control) and compounds −0045 (sm1), −0050 (sm3) and −0052 (sm5) (FIG. 12B), normalized to miR-21 levels in the absence of any compound. […] The two panels represent independent duplicates of the same experiment.
HeLa cells have relatively high levels of miR-21, and this cell line was used to evaluate whether addition of the molecules would decrease levels of mature miR-21, as expected for inhibition of miR-21 processing. […] In contrast, compounds −0045, −50 and −52, induce an approximately 20% percent decline in levels of mature miR-21 (FIGS. 12A and 12B; the comparison of FIG. 12A and FIG. 12B provides an indication in the uncertainty of the data). miR-21 is very long lived, with a lifetime of approximately 5 days. […] Similar results were obtained at higher numbers of cells/plate (200 k vs at the start of the experiment), but the experiment could not be extended beyond 2 days because of the very high cell density reached. The observed trends were nonetheless in agreement with the experiments conducted at lower cell density.

[2] = test system: gastric (AGS) cancer cell line; assay: MTS proliferation assay, AGS; assay type: cell-based, human; settings: for viability (anti-proliferative activity), MTS: as a function of time, triplicate
Source text: (§1) FIGS. 10A-10F compare anti-proliferative activity of 10 nmoles of compounds −0045 and −0052 against gastric (AGS) (FIGS. 10B and 10C, respectively) and pancreatic (ASPC1) (FIGS. 10E and 10F, respectively) cancer cell lines, as measured as a function of time and compared to palbociclib (−000) (FIGS. 10A-AGS; and 10D-ASPC1) using standard MTS assays in the indicated cell lines; results were in triplicate with reported experimental uncertainty.
(§2) FIGS. 11A-11F compare anti-proliferative activity of 5 nmoles of compounds −0045 and −0052 against gastric (AGS) (FIGS. 11B and 11C, respectively) and pancreatic (ASPC1) (FIGS. 11E and 11F, respectively) cancer cell lines, as measured as a function of time and compared to palbociclib (−000) (FIGS. 11A-AGS; and 11D-ASPC1), using standard MTS assays in the indicated cell lines; results were in triplicate with reported experimental uncertainty.
(§3) The anti-proliferative activity of compounds −0045 and −0052 in two cell lines characterized by high levels of miR-21 (gastric adenocarcinoma (AGS) and pancreatic (ASPC1) cancer origin) was determined. These experiments were conducted in a double-blind format, without knowledge of the identity or binding activity of the compounds, to avoid any unintentional bias. […] Viability in the presence of both palbociclib and compound −0052 is decreased after approximately 72-96 hrs to a statistically significant extent (data points marked with asterisks are statistically significant).
(§4) Cell line maintenance. Using the Cancer Cell Line Encyclopedia (CCLE), in-house cancer cell lines were screened to identify cancer and tissue types with varying levels of miR-21 expression. Experiments were performed using the human-derived cell lines AGS (gastric cancer) and AsPC-1 (pancreatic cancer). Cell lines were obtained from the American Type Culture Collection and maintained per instructions from the supplier. AGS were cultured in F12K medium supplemented with 10% FBS. AsPC-1 were cultured in RPMI, with 10% FBS added. All cells were kept at 37° C. in a humidified atmosphere of 5% CO2 and underwent regular mycoplasma testing. All experiments were conducted when cells were 70-80% confluent.
(§5) Proliferation assay. The impact of the compound on cellular proliferation was assessed, with 5,000 cells in each cell line seeded in replicates of 6 in a 96 well plate and treated with DMSO or with compounds. After 48 hours, cells were treated with the MTS reagent and optical density was read to generate dose-response curves.

[3] = test system: pancreatic (ASPC1) cancer cell line; assay: MTS proliferation assay, ASPC1; assay type: cell-based, human; settings: for viability (anti-proliferative activity), MTS: as a function of time, triplicate
Source text: as §1, §2, §3, §4, §5

Row | Compound | levels of PDCD4 (Western blot) (PDCD4 in AGS cells; listed as −0045) | decline in levels of mature miR-21 [1] | reduction of all newly synthesized miR-21 [1] | viability (anti-proliferative activity), MTS ([2]; 5 nmoles of compound) | viability (anti-proliferative activity), MTS ([2]; 10 nmoles of compound) | viability (anti-proliferative activity), MTS ([3]; ASPC1, 5 nmoles of compound) | viability (anti-proliferative activity), MTS ([3]; ASPC1, 10 nmoles of compound) | levels of PDCD4 (Western blot) (PDCD4 in AGS cells; listed as −0052) | cell killing activity, MTS over 6 days ([2]; both concentrations tested (10 and 5 nmols), double-blind) | cell killing activity, MTS over 6 days ([3]; ASPC1, both concentrations tested (10 and 5 nmols), double-blind)
1 | O=c1[nH]c(Nc2ccc(N3CCNCC3)cn2)nc2cccnc12 [Compound 25] | an increase was observed; also recorded: increase levels of PDCD4 | approximately 20% | about 60% | does not | does not | does not | does not | – | – | –
2 | O=c1[nH]c(Nc2ccc(N3CCNCC3)cn2)nc2cnccc12 [Compound 30] | – | approximately 20% | about 60% | reduce the viability of both cell lines to a statistically significant extent | reduce the viability of both cell lines to a statistically significant extent | reduce the viability of both cell lines to a statistically significant extent | reduce the viability of both cell lines to a statistically significant extent | an increase was observed; also recorded: increase levels of PDCD4 | Cell killing activity | Cell killing activity
